Reference: patent US7655678B2, “Pharmaceutical composition for the management of tumors” (Council of Scientfic & Industrial Research, priority 2004, dated 2010)

What was measured:
skin tumor formation = conditions: topical application; cited from earlier work
[1] = system: DMBA induced mouse skin tumor development; assay: chronic animal bioassay: DMBA induced mouse skin tumor development, topical treatment; assay type: in vivo, female Swiss albino mice; conditions: DMBA 200 ug/kg; Cag 240 mg/kg, NA 240 mg/kg, BA 8 mmoles/kg body wt; topical twice weekly; terminated after 30 weeks; 15 animals each group
Source text: We have used female Swiss albino mice from the inbred colony of Industrial Toxicology Research Center, Lucknow, India. The treatment schedule was followed as described earlier (22). Animals were shaved on the back (2×2 cm) in the interscapular region using surgical clippers. Only the animals in the resting phase of hair growth were selected for the study. For this chronic animal bioassay, we have taken 135 animals and divided them into 9 groups, consisting of 15 animals each. Group 1 served as negative control group where animals received acetone/DMSO only. For the entire study we have used 7,12-Dimethylbenz (a) anthracene (DMBA) as a skin carcinogen. DMBA was used at the dose of 200 μg/kg body wt in 0.1 ml acetone. In group 3, animals were treated with DMBA followed by concomitant application of Calcium D-glucarate (240 mg/kg body wt in 0.1 ml of DMSO). […] In group 5, animals were treated with DMBA followed by concomitant application of Butyric acid (8 mmoles in 0.1 ml of acetone). […] In group 7, animals were treated with DMBA followed by a concomitant application of Calcium D-glucarate, Butyric acid. […] All the treatments were applied topically. […] Animals were inspected regularly for tumor incidence, baldness, acne, poor health, sickness etc. Experiment was terminated after 30 weeks.
Experimental Design (15 Animals Each Group)

skin papilloma formation = conditions: topical, cited from earlier work; for rate of survival: SENCAR mice; for skin papilloma formation: from the ninth week of promotion
mouse skin papillomas = conditions: at higher concentrations; cited from earlier work

| Structure (SMILES) | Cumulative no. of tumor [1] | No. of tumo bearing animal/Initial No. of animals [1] | Onset of firs tumor [in weeks] [1] [weeks] | also measured |
| --- | --- | --- | --- | --- |
| CC(C)=CCOc1ccc2ccc(=O)oc2c1 [7-Isopentenyloxucoumarin] |  |  |  | skin tumor formation (skin tumor formation): suppressed |
| O=C([O-])[C@@H](O)[C@@H](O)[C@H](O)[C@@H](O)C(=O)[O-].[Ca+2] [DMBA + CaG, Calcium D-glucarate] | 12 | 10/15 | 18 |  |
| NC(=O)c1cccnc1 [DMBA + NA, Nicotinamide] | 09 | 08/15 | 21 | 100% tumorigenesis [in weeks] [1]: 0 weeks |
| Cc1c2ccccc2c(C)c2c1ccc1ccccc12 [DMBA, 7,12-Dimethylbenz (a) anthracene] | 62 | 15/15 | 15 | 100% tumorigenesis [in weeks] [1]: 28 weeks |
| C=CCSSCC=C [diallyl disulfide] |  |  |  | rate of survival (skin papilloma formation): significantly increased; skin papilloma formation (skin papilloma formation): significantly inhibited |
| C=CCSCC=C [diallyl sulfide] |  |  |  | rate of survival (skin papilloma formation): significantly increased; skin papilloma formation (skin papilloma formation): significantly inhibited |
| CC1=C(/C=C/C(C)=C/C=C/C(C)=C/C(=O)O)C(C)(C)CCC1 [retinoic acid] |  |  |  | cytotoxicity (mouse skin papillomas): cytotoxic |
